According to the supplement of paper PMC10307832:

Tests used:
Test in all cases: relative viability (nuclei count vs DMSO), 5 days (fraction); higher = more cells survive
[1] = compound: CC1=CC=C(C=C1)C(=O)CN2C3=C(CCCC3)SC2=N [Pifithrin_alpha] + NC(=O)Nc1cc(-c2cccc(F)c2)sc1C(=O)N[C@H]1CCCNC1 [AZD7762] (partner 0.2 µM)
Summary of the method: (§1)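 The day after seeding in 1536-well plates, lung cancer cell lines were treated by pin tool with a single drug, or with a fixed anchor-drug dose together with five library-drug doses (not always all listed) in √10 steps. After 5 days, a combined fix-and-stain solution (final 0.05% Triton X-100, 1% formaldehyde, 1 ug/ml Hoechst) was added. Nuclei counted on 4× images gave relative viability as treated counts over vehicle counts, reported as the median of duplicate plates.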

Bemcentinib + Trametinib = compound: Nc1nc(Nc2ccc3c(c2)CC[C@@H](N2CCCC2)CC3)nn1-c1cc2c(nn1)-c1ccccc1CCC2 [Bemcentinib] + CC(=O)Nc1cccc(-n2c(=O)n(C3CC3)c(=O)c3c(Nc4ccc(I)cc4F)n(C)c(=O)c(C)c32)c1 [Trametinib] (partner 0.02 µM)
Summary of the method: as §1

[2] = compound: CC1=CC=C(C=C1)C(=O)CN2C3=C(CCCC3)SC2=N [Pifithrin_alpha] + Nc1nc2[nH]cc(CCc3ccc(C(=O)N[C@@H](CCC(=O)O)C(=O)O)cc3)c2c(=O)[nH]1 [Pemetrexed] (partner 0.2 µM)
Summary of the method: as §1

[3] = compound: CC1=CC=C(C=C1)C(=O)CN2C3=C(CCCC3)SC2=N [Pifithrin_alpha] + Nc1ncn([C@H]2C[C@H](O)[C@@H](CO)O2)c(=O)n1 [Decitabine] (partner 2 µM)
Summary of the method: as §1

Cell Line	relative viability ([1]; first compound 1 µM)	relative viability ([1]; first compound 3.162 µM)	relative viability ([1]; first compound 10 µM)	relative viability ([1]; first compound 31.62 µM)	relative viability ([1]; first compound 100 µM)	relative viability (Bemcentinib + Trametinib; first compound 0.04 µM)	relative viability (Bemcentinib + Trametinib; first compound 0.1265 µM)	relative viability (Bemcentinib + Trametinib; first compound 0.4 µM)	relative viability (Bemcentinib + Trametinib; first compound 1.265 µM)	relative viability (Bemcentinib + Trametinib; first compound 4 µM)	relative viability ([2]; first compound 1 µM)	relative viability ([2]; first compound 3.162 µM)	relative viability ([2]; first compound 10 µM)	relative viability ([2]; first compound 31.62 µM)	relative viability ([2]; first compound 100 µM)	relative viability ([3]; first compound 1 µM)	relative viability ([3]; first compound 3.162 µM)	relative viability ([3]; first compound 10 µM)	relative viability ([3]; first compound 31.62 µM)	relative viability ([3]; first compound 100 µM)
NCI-H1755	0.433	0.498	0.46	0.41	0.434	0.765	0.817	0.818	0.768	0.813	0.417	0.445	0.381	0.342	0.446	0.74	0.632	0.731	0.593	0.729
NCI-H1792	0.656	0.508	0.453		0.494	0.461	0.422	0.549	0.569	0.43	1.12	0.649	0.675		0.585	0.457	0.48	0.624		0.423
NCI-H1793	0.605	0.402	0.441	0.323	0.255	0.442	0.436	0.421	0.442	0.365	0.538	0.79	0.888	0.671	0.695	0.442	0.464	0.489	0.323	0.454
NCI-H1915	0.682	0.694	0.647		0.656	0.291	0.29	0.283	0.293	0.305	0.478	0.547	0.441		0.598	0.27	0.254	0.249		0.224
NCI-H1944	0.514	0.574	0.563	0.529	0.468	0.399	0.43	0.463	0.431	0.468	0.562	0.55	0.59	0.457	0.512	0.406	0.461	0.39	0.337	0.343
NCI-H1975	0.508	0.485	0.501	0.512	0.38	0.282	0.399	0.365	0.36	0.344	0.285	0.277	0.27	0.212	0.228	0.663	0.339	0.306	0.311	0.279
NCI-H1993	0.528	0.665	0.69	0.538	0.569	0.71	0.394	0.467	0.493	0.482	0.844	0.547	0.669	0.452	0.479	0.514	0.494	0.609	0.467	0.505
NCI-H2085	1	0.973	0.881	0.665	0.762	0.538	0.667	0.526	0.444	0.516	0.945	0.819	0.888	0.835	0.713	0.523	0.419	0.473	0.473	0.503
NCI-H2087	1.4	1.32	1.28	1.03	1.26	0.192	0.193	0.201	0.211	0.206	0.608	0.665	0.593	0.597	0.74	0.252	0.291	0.262	0.203	0.267
NCI-H2126	0.79	1.05	0.949	0.799	0.915	0.639	0.583	0.588	0.581	0.585	0.448	0.656	0.625	0.56	0.643	0.518	0.594	0.576	0.49	0.548
NCI-H2170	0.899	0.91	0.733	0.613	0.783	0.94	0.967	0.92	0.968	0.936	0.279	0.296	0.3	0.234	0.255	0.48	0.453	0.476	0.427	0.453
NCI-H2342	0.421	0.541	0.51	0.525	0.492	0.897	0.904	0.895	0.988	0.88	0.628	0.741	0.729	0.855	0.782	0.685	0.779	0.744	0.64	0.678
NCI-H2347	0.84	0.733	0.738	0.756	0.86	0.254	0.312	0.232	0.307	0.302	0.406	0.416	0.441	0.485	0.447	0.576	0.685	0.603	0.65	0.698
NCI-H2405		0.654	0.651	0.579	0.615	0.6	0.732	0.621	0.7	0.722		0.86	0.957	0.802	0.971		0.678	0.708	0.592	0.668
NCI-H3122	1.07	1.1	0.962	0.739	1.08	0.25	0.248	0.214	0.252	0.244	0.224	0.198	0.184	0.166	0.203	0.529	0.443	0.539	0.364	0.468
PC-3 [JPC-3]		0.678		0.464	0.446	0.664	0.775	0.725	0.632	0.636		1.08		0.769	1.04		0.742		0.714	0.642
PC-14	0.217	0.194	0.251	0.213	0.263	0.857	0.783	0.947	0.879	0.892	0.143	0.121	0.133	0.0962	0.0885	0.236	0.184	0.219	0.155	0.123
